Measured values as given in patent EP4497439A1, “COMPOUNDS FOR THE TREATMENT OR PREVENTION OF GOUT” (Universitat de les Illes Balears, priority 2023, dated 2025).
Read-outs that look alike come from different tables or passages of the source.

What was measured:
[1] = in vitro model of monosodium urate monohydrate (MSU) crystallization: naked eye observation and uric acid remaining in solution (phosphotungstic acid method); assay type: physicochemical; design: C100 (minimum concentration that totally prevented the formation of sodium urate crystals): unit not given here; settings: for concentration capable of preventing the formation of MSU crystals (increased uric acid in solution) / C100 (minimum concentration that totally prevented the formation of sodium urate crystals): 5 days (120 h); for effect on the crystallization of MSU (formation of MSU crystals) / solubility of sodium urate in the tested fluid: compound 0.3 mM; for effect on the crystallization of MSU (formation of MSU crystals): uric acid 375 mg/L (2.23 mM), 6 days (144 h) plate images, 4 days uric acid in solution; for effect on the crystallization of MSU (formation of MSU crystals) / solubility of sodium urate in the tested fluid / C100 (minimum concentration that totally prevented the formation of sodium urate crystals): phosphate buffer 12 mM
[2] = doses of up to 400 mg three times a day; treatment of myopia; cited from earlier work
[3] = cited from earlier work
[4] = uric acid 375 mg/L, [Na+] 400 mM, pH 7.4

For Cn1c(=O)[nH]c(=O)c2[nH]cnc21 [3-methylxanthine], the “concentration capable of preventing the formation of MSU crystals (increased uric acid in solution)” value [1, 4] was at most 50 µM, the “effect on the crystallization of MSU (formation of MSU crystals)” value (“effect on the crystallization of MSU” for short) ([1]; [Na+] 400 mM, pH 7.4) was “strong inhibition” and the “solubility of sodium urate in the tested fluid” value (shortened to “solubility of sodium urate”) [1, 4] was “significantly increased”. For the same compound, the “effects relative to those of 7-methylxanthine” value ([1]; same concentration) was “approximately half”.
For Cn1c(=O)[nH]c2[nH]c(=O)[nH]c(=O)c21 [7-methyluric acid], the “effect on the crystallization of MSU” value ([1]; [Na+] 400 mM, pH 7.4) was “strong inhibition”, the “solubility of sodium urate” value [1, 4] was “significantly increased” and the “effects relative to those of 7-methylxanthine” value ([1]; same concentration) was “like those of 7-methylxanthine”.
With Cn1cnc2[nH]c(=O)[nH]c(=O)c21 [7-methylxanthine] the “formation of MSU crystals after 3 days” value ([1]; 50 µM, 100 µM and 150 µM, triplicates, uric acid 375 mg/L, [Na+] 400 mM, pH 7.4, 72 h) was “completely prevented”, the “concentration capable of preventing the formation of MSU crystals (increased uric acid in solution)” value [1, 4] was at most 50 µM and the “C100 (minimum concentration that totally prevented the formation of sodium urate crystals)” value ([1]; [UA]0 275 mg/L, [Na+] 400 mM, pH 7.4) was 10. The “C100 (minimum concentration that totally prevented the formation of sodium urate crystals)” value ([1]; [UA]0 300 mg/L, [Na+] 400 mM, pH 7.4) was 20, the “C100 (minimum concentration that totally prevented the formation of sodium urate crystals)” value ([1]; [UA]0 340 mg/L, [Na+] 400 mM, pH 7.4) was 40 and the “C100 (minimum concentration that totally prevented the formation of sodium urate crystals)” value ([1]; [UA]0 375 mg/L, [Na+] 400 mM, pH 7.4) was 60. For the same compound, the “C100 (minimum concentration that totally prevented the formation of sodium urate crystals)” value ([1]; [UA]0 400 mg/L, [Na+] 400 mM, pH 7.4) was 80, the “C100 (minimum concentration that totally prevented the formation of sodium urate crystals)” value ([1]; [UA]0 425 mg/L, [Na+] 400 mM, pH 7.4) was 100 and the “C100 (minimum concentration that totally prevented the formation of sodium urate crystals)” value ([1]; [UA]0 450 mg/L, [Na+] 400 mM, pH 7.4) was 125. The “effect on the crystallization of MSU” value ([1]; [Na+] 400 mM, pH 7.4) was “strong inhibition”, the “solubility of sodium urate” value [1, 4] was “significantly increased” and the “crystallization inhibition compared with the other methylxanthine” value ([1]; same concentration, 5 days, uric acid 375 mg/L) was “significantly higher crystallization inhibition compared to 3-methylxanthine”. For the same compound, the “concentration that prevents the formation of sodium urate crystals for times longer than 48h” value ([1]; times longer than 48h) was about 6 mg/L and the toxicity [2] was “do not present any toxicity”.
For Cn1c(=O)c2c(ncn2C)n(C)c1=O [caffeine, 1,3,7-trimethylxanthine, reference compound], the “effect on the crystallization of MSU” value ([1]; [Na+] 400 mM, pH 7.4) is given as “does not affect” and the “share metabolized to 7-methylxanthine” value ([3]; administered orally) is given as 8%.
For Cn1cnc2c1c(=O)[nH]c(=O)n2C [theobromine, 3,7-dimethylxanthine, reference compound], the “effect on the crystallization of MSU” value ([1]; [Na+] 400 mM, pH 7.4) is listed as “did not show any effect” and the “share metabolized to 7-methylxanthine” value ([3]; in vivo, po) is listed as 30%.
